Results as given in patent US8247211B2, “Glycopeptide antibiotics” (American Cyanamid Company, priority 2001, dated 2012).
≈ marks a conversion by molar mass, not a printed value.

Columns and labels:
Assay in all cases: In vitro antibacterial evaluation: minimum inhibitory concentration (MIC), broth dilution method
Type in all cases: cell-based
[1] = system: Enterococcus sp.
How it was run: (§1)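 An MIC is reported for each organism as the least concentration giving inhibition, using broth dilution over 64-0.06 μg/mL with a 5×10^5 CFU/mL inoculum.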

[2] = system: Escherichia coli
How it was run: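 Values are minimum inhibitory concentrations, meaning the smallest antibiotic concentration that stops growth of the organism. They come from broth dilution in Muller-Hinton II […] per NCCLS guidance (M7-A2), using 5×10^5 CFU/mL and concentrations from 64 to 0.06 μg/mL.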

[3] = system: Streptococcus sp.
How it was run: as §1

[4] = system: Staphylococcus sp.; details: broth dilution, 18 hours at 35° C.
How it was run: as §1

[5] = broth dilution, inoculum 5×10^5 CFU/mL, 18 hours at 35° C.

CC(=O)n1cc(C2OCC3OC(OC4C(CO)OC(Oc5ccc(CC6NC(=O)C(C(C)c7ccccc7)NC(=O)CNC(=O)C(CO)NC(=O)C(C(O)C7CNC(=N)N7C7OC(CO)C(O)C(O)C7O)NC(=O)C(C(O)C7CNC(=N)N7)NC6=O)cc5)C(O)C4O)C(O)C(O)C3O2)c2ccccc21 (stereo not drawn) [Example 161, Cyclo[glycyl-β-methylphenylalanyl-O-[4-O-[4,6-O-[1-(acetylindol-3-yl)methylene]hexopyranosyl]hexopyranosyl]tyrosyl-3-(2-iminoimidazolidin-4-yl)seryl-3-(3-hexopyranosyl-2-iminoimidazolidin-4-yl)serylseryl]]
MIC Enterococcus avium (GC 4558) [1, 5]: 16 µg/mL (≈ 10.9 µM) | MIC Enterococcus faecalis (ATCC 29212) [1, 5]: 16 µg/mL (≈ 10.9 µM) | MIC Enterococcus faecalis (GC 4552) [1, 5]: 16 µg/mL (≈ 10.9 µM) | MIC Enterococcus faecalis (GC 4553) [1, 5]: 16 µg/mL (≈ 10.9 µM) | MIC Enterococcus faecalis (GC 4554) [1, 5]: 16 µg/mL (≈ 10.9 µM) | MIC Enterococcus faecalis (GC 6189) [1, 5]: 16 µg/mL (≈ 10.9 µM) | MIC Enterococcus faecium (GC 2243) [1, 5]: 16 µg/mL (≈ 10.9 µM) | MIC Enterococcus faecium (GC 4556) [1, 5]: 16 µg/mL (≈ 10.9 µM) | MIC Enterococcus faecium (GC 4557) [1, 5]: 8 µg/mL (≈ 5.46 µM) | MIC Enterococcus faecalis (ATCC 29212) ([1]; strain ATCC 29212): 16 µg/mL (≈ 10.9 µM) | MIC Enterococcus faecalis (GC 2242) ([1]; strain GC 2242): 16 µg/mL (≈ 10.9 µM) | MIC Enterococcus faecium (GC 2243) ([1]; strain GC 2243): 16 µg/mL (≈ 10.9 µM) | MIC Enterococcus faecalis (GC 2691) ([1]; strain GC 2691): 16 µg/mL (≈ 10.9 µM) | MIC Enterococcus faecalis (GC 3059) ([1]; strain GC 3059): 16 µg/mL (≈ 10.9 µM) | MIC Enterococcus faecalis (GC 4552) ([1]; strain GC 4552): 16 µg/mL (≈ 10.9 µM) | MIC Enterococcus faecalis (GC 4553) ([1]; strain GC 4553): 16 µg/mL (≈ 10.9 µM) | MIC Enterococcus faecalis (GC 4554) ([1]; strain GC 4554): 16 µg/mL (≈ 10.9 µM) | MIC Enterococcus faecium (GC 4556) ([1]; strain GC 4556): 16 µg/mL (≈ 10.9 µM) | MIC Enterococcus faecium (GC 4557) ([1]; strain GC 4557): 8 µg/mL (≈ 5.46 µM) | MIC Enterococcus avium (GC 4558) ([1]; strain GC 4558): 16 µg/mL (≈ 10.9 µM) | MIC Enterococcus faecalis (GC 6189) ([1]; strain GC 6189): 16 µg/mL (≈ 10.9 µM) | MIC Escherichia coli (ATCC 25922) ([2]; strain ATCC 25922): >64 µg/mL | MIC Escherichia coli (GC 4559) ([2]; strain GC 4559): >64 µg/mL | MIC Escherichi coli (GC 4560) ([2]; strain GC 4560): 2 µg/mL (≈ 1.37 µM) | MIC Streptococcus pneumoniae (ATCC 6301) ([3]; strain ATCC 6301): 0.5 µg/mL (≈ 0.341 µM) | MIC Streptococcus pneumoniae (GC 1894) ([3]; strain GC 1894): 0.12 µg/mL (≈ 0.0819 µM) | MIC Streptococcus pyogenes (GC 4563) ([3]; strain GC 4563): 1 µg/mL (≈ 0.683 µM) | MIC Streptococcus agalactiae (GC 4564) ([3]; strain GC 4564): 1 µg/mL (≈ 0.683 µM) | MIC Streptococcus pneumoniae (GC 4565) ([3]; strain GC 4565): 0.5 µg/mL (≈ 0.341 µM) | MIC Coagulase Negative Staphylococcus (GC 4547) ([4]; 5×10^5 CFU/mL): 4 µg/mL (≈ 2.73 µM) | MIC Coagulase Negative Staphylococcus (GC 4548) ([4]; 5×10^5 CFU/mL): 2 µg/mL (≈ 1.37 µM) | MIC Coagulase Negative Staphylococcus (GC 4549) ([4]; 5×10^5 CFU/mL): 2 µg/mL (≈ 1.37 µM) | MIC Coagulase Negative Staphylococcus (GC 4551) ([4]; 5×10^5 CFU/mL): 8 µg/mL (≈ 5.46 µM) | MIC Coagulase Negative Staphylococcus (GC 6257) ([4]; 5×10^5 CFU/mL): 2 µg/mL (≈ 1.37 µM) | MIC Staphylococcus aureus (ATCC 29213) ([4]; 5×10^5 CFU/mL): 4 µg/mL (≈ 2.73 µM) | MIC Staphylococcus aureus (GC 1131) ([4]; 5×10^5 CFU/mL): 8 µg/mL (≈ 5.46 µM) | MIC Staphylococcus aureus (GC 3051) ([4]; 5×10^5 CFU/mL): 8 µg/mL (≈ 5.46 µM) | MIC Staphylococcus aureus (GC 3053) ([4]; 5×10^5 CFU/mL): 8 µg/mL (≈ 5.46 µM) | MIC Staphylococcus aureus (GC 4541) ([4]; 5×10^5 CFU/mL): 4 µg/mL (≈ 2.73 µM) | MIC Staphylococcus aureus (GC 4542) ([4]; 5×10^5 CFU/mL): 4 µg/mL (≈ 2.73 µM) | MIC Staphylococcus aureus (GC 4544) ([4]; 5×10^5 CFU/mL): 8 µg/mL (≈ 5.46 µM) | MIC Staphylococcus aureus (GC 4545) ([4]; 5×10^5 CFU/mL): 4 µg/mL (≈ 2.73 µM) | MIC Staphylococcus aureus-SMITH (GC 4543) ([4]; 5×10^5 CFU/mL): 4 µg/mL (≈ 2.73 µM) | MIC Staphylococcus haemolyticus (GC 4546) ([4]; 5×10^5 CFU/mL): 4 µg/mL (≈ 2.73 µM) | MIC Staphylococcus aureus (ATCC 29213) ([4]; strain ATCC 29213): 4 µg/mL (≈ 2.73 µM) | MIC Staphylococcus aureus (GC 1131) ([4]; strain GC 1131): 8 µg/mL (≈ 5.46 µM) | MIC Staphylococcus aureus (GC 3051) ([4]; strain GC 3051): 8 µg/mL (≈ 5.46 µM) | MIC Staphylococcus aureus (GC 3053) ([4]; strain GC 3053): 8 µg/mL (≈ 5.46 µM) | MIC Staphylococcus aureus (GC 4541) ([4]; strain GC 4541): 4 µg/mL (≈ 2.73 µM) | MIC Staphylococcus aureus (GC 4542) ([4]; strain GC 4542): 4 µg/mL (≈ 2.73 µM) | MIC Staphylococcus aureus-SMITH (GC 4543) ([4]; strain GC 4543): 4 µg/mL (≈ 2.73 µM) | MIC Staphylococcus aureus (GC 4544) ([4]; strain GC 4544): 8 µg/mL (≈ 5.46 µM) | MIC Staphylococcus aureus (GC 4545) ([4]; strain GC 4545): 4 µg/mL (≈ 2.73 µM) | MIC Staphylococcus haemolyticus (GC 4546) ([4]; strain GC 4546): 4 µg/mL (≈ 2.73 µM) | MIC Coagulase Negative Staphylococcus (GC 4547) ([4]; strain GC 4547): 4 µg/mL (≈ 2.73 µM) | MIC Coagulase Negative Staphylococcus (GC 4548) ([4]; strain GC 4548): 2 µg/mL (≈ 1.37 µM) | MIC Coagulase Negative Staphylococcus (GC 4549) ([4]; strain GC 4549): 2 µg/mL (≈ 1.37 µM) | MIC Coagulase Negative Staphylococcus (GC 4551) ([4]; strain GC 4551): 8 µg/mL (≈ 5.46 µM) | MIC Coagulase Negative Staphylococcus (GC 6257) ([4]; strain GC 6257): 2 µg/mL (≈ 1.37 µM)
